Data set [1] concerns the target T1, CYP2D6 (Homo sapiens, UniProt P10635).
T1 construct: Pooled of Human Liver Microsomes was purchased from Xenotech, LLC; tissue Xenotech, LLC; host or cells: pooled human liver microsomes
Kind of data set: CYP2D6 inhibition screening test. It counts as in vitro ADME. As to conditions: pooled human liver microsomes, substrate bufuralol, 37° C. 10 min, 1'-hydroxybufuralol by LC-MSMS; read-out: Test Example 3: CYP2D6 Inhibition IC50. The protocol:
CYP2D6 Inhibition Screening Test
Bufuralol was purchased from Sigma-Aldrich Corp., and Pooled of Human Liver Microsomes was purchased from Xenotech, LLC.
150 μL of Pooled Human Liver Microsomes (20 mg/ml), 12 mL of a 0.5 M potassium phosphate buffer, 1.2 mL of a 165 mM magnesium chloride solution, and 34.65 mL of distilled water were mixed.
Bufuralol was dissolved at a concentration of 2.0 mM in DMSO and then diluted 200-fold with distilled water.
3-3 Experimental Procedures
1. A 10 mM DMSO solution of a test drug was serially diluted 5-fold with DMSO for 4 serial dilutions to prepare 10, 2, 0.4, and 0.08 mM DMSO solutions.
2. Each test drug solution of the step 1. and DMSO were separately diluted 96-fold with a human liver microsome solution, and each dilution was dispensed and 80 μL of each dilution to microplates.
3. 10 μL of a substrate solution and 10 μL of a β-NADPH solution were added to the well of the step 2., followed by incubation at 37° C. for 10 min.
4. The reaction was terminated by the addition of 300 μL of methanol.
5. The reaction mixture was filtered, and LC-MSMS analysis was conducted.
3-4 Quantification and Calculation
The amount of 1′-hydroxybufuralol produced was quantified by LC-MSMS, and this amount was used as a metabolic activity of CYP2D6 for each well. The remaining activity of each sample was determined by comparison with the activity obtained from DMSO as a test drug. An IC50 value of CYP2D6 inhibition was determined from the test drug concentration and remaining activity. The IC50 value was calculated by linear interpolation between two points that span the remaining activity 50%. A larger value of IC50 of CYP2D6 inhibition means weaker CYP2D6 inhibition.
On the technique in general: Microsomes from liver hold many membrane-bound enzymes, among them those of drug oxidation.

The target of data set [2] is T2, human serotonin transporter (h-SERT) (Homo sapiens, UniProt P31645).
T2 construct: expressed in transfected cells; host or cells: CHO cells (h-SERT/CHO), Geneticin-selected
As to the kind of experiment: Serotonin transporter function inhibition test using [3H]5-HT. As to conditions: h-SERT/CHO cells, [3H]5-HT uptake approximately 10 nM, 37° C. 10 minutes; read-out: Test Example 5: h-SERT Function Inhibition Constant (Ki). In kind it is cell-based. The protocol:
1-1 Cells Used and Preparation of Cell Suspension
CHO cells containing a human serotonin transporter (h-SERT) expressed therein (h-SERT/CHO) were used in the experiment. […] The collected cells were suspended in a buffer solution containing 0.1 mM CaCl2 and 1 mM MgCl2 in PBS (hereinafter, referred to as PBSCM) and stored in ice until use.
Specifically, 149 μl of the cell suspension (10×10^4 cells/well) and 1 μl of a solution of a test drug dissolved in dimethyl sulfoxide were preincubated at 37° C. for 10 minutes.

Data set [3] has as its target T3, human serotonin 1A receptor (h-5-HT1A) (Homo sapiens, UniProt P08908).
T3 sequence (P08908 1-422): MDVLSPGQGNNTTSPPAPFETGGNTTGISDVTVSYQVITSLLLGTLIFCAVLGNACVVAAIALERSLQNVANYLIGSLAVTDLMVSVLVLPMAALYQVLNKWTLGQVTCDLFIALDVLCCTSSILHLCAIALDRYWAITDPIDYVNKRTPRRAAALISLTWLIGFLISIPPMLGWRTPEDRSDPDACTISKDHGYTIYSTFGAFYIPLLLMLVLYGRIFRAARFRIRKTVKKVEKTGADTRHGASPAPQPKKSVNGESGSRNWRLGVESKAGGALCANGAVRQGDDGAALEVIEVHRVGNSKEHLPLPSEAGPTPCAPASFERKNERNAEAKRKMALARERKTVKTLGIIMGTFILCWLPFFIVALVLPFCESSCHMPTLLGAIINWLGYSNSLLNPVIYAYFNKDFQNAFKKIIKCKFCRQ
Description: The cells were cultured in F12 containing 10% FCS, 500 μg/ml Geneticin, and 100 U/ml penicillin-100 μg/ml streptomycin (all manufactured by Sigma-Aldrich Corp.) in a 5% CO2 incubator. […] Specifically, the cells were dissociated/collected using 50 mM Tris-HCl (pH=7.4). The resulting cells were homogenized using a Teflon (registered trademark) homogenizer and then centrifuged (48,000×g, 20 min, 4° C.). The pellet was resuspended in an appropriate amount of 50 mM Tris-HCl (pH=7.4) and stored at −80° C. until use. The amount of the protein in the membrane preparation was quantified using Dye Reagent Concentrate (manufactured by Bio-Rad Laboratories, Inc.) with bovine serum albumin (manufactured by Sigma-Aldrich Corp.) as a standard.
The reaction solution was reacted at room temperature for 30 minutes and then rapidly filtered by suction at a low pressure through glass fiber filter paper. The glass fiber filter paper was washed twice with 250 μl of 50 mM Tris-HCl (pH=7.4) and then added to a counting vial containing 4 ml of ACS-II (manufactured by Amersham Biosciences). Receptor binding radioactivity remaining on the filter paper was measured using a liquid scintillation counter.

The target of data set [4] is T1, CYP2D6. Kind of data set: Screening test of the rate of CYP2D6 contribution in human liver microsomal metabolism. The following applies: 1 mg/mL human liver microsomes, 1 μM test substance, 37° C.; for Test Example 4: Rate of CYP2D6 Contribution: with/without quinidine 4 μM. Also on record: key to Rate of CYP2D6 Contribution indeterminable due to high stability for human microsomal metabolism: —*^): The rate of CYP2D6 contribution was indeterminable in the present test due to high stability for human microsomal metabolism. It counts as in vitro ADME. The protocol:
Screening Test of the Rate of CYP2D6 Contribution in Human Liver Microsomal Metabolism
0.2 mL of a 50 mM potassium phosphate buffer solution (pH 7.4) containing NADPH (final concentration: 3 mM, manufactured by Oriental Yeast Co., Ltd.), 1 mg/mL human liver microsomes (manufactured by XENOTECH, LLC), and a 1 μM test substance was heated on a water bath at 37° C. for metabolic reaction. After the reaction for 15 minutes or 30 minutes, methanol was added in a volume 3 times that of the reaction solution, and the mixture was stirred to terminate the reaction. This reaction solution was centrifuged for protein precipitation. Then, the supernatant was collected and subjected to LC-MS/MS analysis. The results were analyzed as follows:
The test substance was quantified, and time-dependent change in the amount of the substance remaining was logarithmically plotted. A metabolic rate was calculated from the slope.
The ratio of the metabolic rate obtained by the addition of quinidine (final concentration: 4 μM) to the reaction solution to the metabolic rate obtained without the addition was used as the rate of contribution of enzymes other than CYP2D6, and the rate of contribution obtained by subtracting this rate of contribution of other enzymes from the total was used as the rate of CYP2D6 contribution. Specifically, it was calculated according to the equation: Rate of contribution(%)={1−(metabolic rate [with quinidine]/metabolic rate[without quinidine])}×100. A smaller value of the rate of CYP2D6 contribution means smaller CYP2D6 contribution.

The target in data set [5] is T2, human serotonin transporter (h-SERT). Kind of data set: Screening test using [3H]citalopram binding for evaluating human serotonin reuptake inhibitory effect. As to conditions: h-SERT/CHO membrane preparation, [3H]citalopram approximately 2 nM, room temperature 60 minutes; read-out: Test Example 1: h-SERT binding inhibition constant (Ki). The source says: CHO cells containing a human serotonin transporter (h-SERT) expressed therein (h-SERT/CHO) were used in the experiment.
1-2 Receptor Binding Experiment
A smaller value of the h-SERT binding inhibition constant Ki means a higher human serotonin reuptake inhibitory effect.

Consider four compounds from patent publication US8557998B2, “Benzylpiperizine compound” (Dainippon Sumitomo Pharma Co., Ltd, priority 2008, dated 2013).

Broadly, the IC50 is the midpoint of a concentration-inhibition curve. As usually defined, the Ki is the dissociation constant of the complex between target and ligand, obtained from inhibition or displacement.

T2 sequence (P31645 whole entry): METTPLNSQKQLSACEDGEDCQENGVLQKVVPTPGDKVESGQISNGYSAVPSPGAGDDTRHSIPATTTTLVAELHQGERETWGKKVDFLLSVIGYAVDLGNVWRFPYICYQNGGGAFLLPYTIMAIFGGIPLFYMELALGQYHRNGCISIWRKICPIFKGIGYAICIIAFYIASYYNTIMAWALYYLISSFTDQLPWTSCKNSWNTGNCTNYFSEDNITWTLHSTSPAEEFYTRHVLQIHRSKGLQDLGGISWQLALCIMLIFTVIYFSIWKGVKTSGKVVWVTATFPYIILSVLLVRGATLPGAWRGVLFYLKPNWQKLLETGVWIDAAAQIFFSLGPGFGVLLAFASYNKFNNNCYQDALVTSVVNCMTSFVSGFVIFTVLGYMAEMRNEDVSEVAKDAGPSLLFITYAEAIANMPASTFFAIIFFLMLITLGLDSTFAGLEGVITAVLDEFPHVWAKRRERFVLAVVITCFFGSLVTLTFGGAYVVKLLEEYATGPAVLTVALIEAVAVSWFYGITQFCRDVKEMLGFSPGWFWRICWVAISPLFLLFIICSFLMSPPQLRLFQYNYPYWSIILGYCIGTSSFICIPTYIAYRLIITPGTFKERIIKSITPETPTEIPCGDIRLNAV
T1 sequence (P10635 whole entry): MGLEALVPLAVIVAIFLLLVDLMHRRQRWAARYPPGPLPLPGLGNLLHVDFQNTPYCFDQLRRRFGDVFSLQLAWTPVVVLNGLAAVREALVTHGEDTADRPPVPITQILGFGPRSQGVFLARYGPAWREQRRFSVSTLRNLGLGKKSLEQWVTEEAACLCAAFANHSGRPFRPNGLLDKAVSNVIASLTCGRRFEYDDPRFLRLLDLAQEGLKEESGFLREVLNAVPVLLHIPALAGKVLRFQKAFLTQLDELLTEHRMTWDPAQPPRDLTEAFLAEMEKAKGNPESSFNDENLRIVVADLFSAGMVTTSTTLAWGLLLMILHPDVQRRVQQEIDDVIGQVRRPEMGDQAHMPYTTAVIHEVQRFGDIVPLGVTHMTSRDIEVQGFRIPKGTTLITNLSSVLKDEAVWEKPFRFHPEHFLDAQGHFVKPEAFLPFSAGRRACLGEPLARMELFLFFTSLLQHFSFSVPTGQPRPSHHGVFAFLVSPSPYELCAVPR

In the case of `COCCOc1cc(CC2CCN(CCc3ccc4c(c3)C(=O)CC4)CC2)ccc1Br` [Example 1], the IC50 at CYP2D6 [1] was 27900 nM. Moreover, the Ki in data set [2] was 8.9 nM; in data set [3], 4.5 nM; in data set [5] it was 0.87 nM. For the same compound, the “Test Example 4: Rate of CYP2D6 Contribution” value (shortened to “Test Example 4: Rate”) at CYP2D6 [4] is recorded as 36%.

In the case of `COCCOc1cc(CC2CCN(CCc3ccc4c(c3)C(=O)CCO4)CC2)ccc1C` [Example 10], the IC50 on CYP2D6 [1] came to 21500 nM. For the same compound, the values for the Ki in data set [2] and in data set [5] were 44 nM and 4.2 nM, respectively. In addition, on CYP2D6 [4], the “Test Example 4: Rate” value came out at 49%.

With `O=C1CCOc2ccc(CCN3CCC(Cc4ccc(Br)c(OCCO)c4)CC3)cc21` [Example 13, 6-(2-{4-[4-Bromo-3-(2-hydroxyethoxy)benzyl]piperidin-1-yl}ethyl)-2,3-dihydro-4H-chromen-4-one], the IC50 on CYP2D6 [1] worked out at 26900 nM. For the same compound, the Ki in data set [2] amounted to 51 nM; in data set [3], 8.6 nM; in data set [5] it was 7.4 nM. For the same compound, the “Rate of CYP2D6 Contribution indeterminable due to high stability for human microsomal metabolism” value at CYP2D6 [4] is reported as “—*^)”.

In the case of `COCCOc1cc(Br)cc(CC2CCN(CCc3ccc4c(c3)C(=O)CCO4)CC2)c1` [Example 17], on CYP2D6 [1], the IC50 was 24600 nM. Also, the Ki in data set [2] was 18 nM; in data set [5], 4 nM. For the same compound, on CYP2D6 [4], the “Test Example 4: Rate” value is recorded as 14%.
